According to patent publication US20080221074A1, “Drug Screen and Treatment Method” (priority 2006, published 2008):

Columns and labels:
[1] = tested on: collagen induced arthritis; assay: collagen induced arthritis (bCII), Foxp3+ cells and clinical score; format: in vivo, DBA/1Lac/J mice
Protocol: Increase of CD4^+CD25^+ T regulatory cells or their activity in vivo. The compound 17α-ethynylandrost-5-ene-3β,7β,17β-triol was administered to mice essentially as described in a previously described collagen induced arthritis animal model. H. Offner et al., Clin. Immunol., 110:181-190, 2006.
DBA/1Lac/J mice were used for the study. The mice were obtained from Jackson Laboratories (Bar Harbor, Harbor, […].) and housed in accordance with applicable institutional guidelines. Bovine type II collagen (bCII) was used to induce collagen induced arthritis (CIA) by immunizing 8-week-old mice with 200 μg of bCII emulsified 1:1 with CFA containing 200 μg Mycobacterium tuberculosis (100 μL; Difco, Detroit, Mich.). The antigen was injected intradermally at the base of the tail. The animals were monitored for 4-7 weeks to observe the onset and progression of the disease post-immunization. The arthritic severity was evaluated with a grading system for each paw according to the following scale: 0=no redness or swelling; 1=slight swelling in ankle or redness in foot; 2=progressed swelling and inflammation and redness from ankle to mid foot; 3=swelling and inflammation of entire foot; 4=swelling and inflammation of entire foot including toes.
After immunization, the mice were treated with the drug at 40 mg/kg/day in vehicle by oral gavage beginning at the start of observable clinical disease (beginning at about 26-27 days after immunization). The vehicle that was used for the protocol was 30% cyclodextrin-sulfobutylether in water. The cyclodextrin-sulfobutylether was obtained commercially (Captisol™ available at cydexinc.com). The drug formulation was 20 mg drug/mL in the vehicle.

[2] = tested on: monocyte chemoattractant protein-1 (MCP-1); assay: MCP-1 RNA in perigonadal fat tissue by quantitative RT/PCR; format: in vivo, db/db mice; details: 20 mg/kg; normalized to vehicle control
Protocol: In another study, total RNA from perigonadal fat tissue from lean db/+ or diabetic db/db mice treated with 20 mg/kg of 17α-ethynylandrost-5-ene-3β,7β,17β-triol was isolated and processed for quantitative RT/PCR using primers specific for monocyte chemoattractant protein-1 (MCP-1) using an icycler iQ multicolor real time-detection system (Bio-Rad). RNA expression levels were normalized with respect to the vehicle control. […] For this study, vehicle was also administered to a control group of age matched lean heterozygous db/+ mice (n=7).

[3] = tested on: osteoblasts and osteocytes; assay: osteoblast and osteocyte apoptosis in vertebral bone of ovariectomized mice (TUNEL); format: in vivo, Swiss Webster mice
Excerpt: The degree of apoptosis of osteoblasts and osteocytes in murine vertebral bone as a function of estrogen deficiency was examined. Swiss Webster mice (four months old) were ovariectomized. Twenty-eight days later, the animals were sacrificed, vertebrae were isolated, fixed and embedded, and then undecalcified in methacrylate.

[4] = tested on: carrageenan-λ induced pleurisy; assay: carrageenan-λ induced lung (pleural cavity) inflammation; format: in vivo, CD1 male mice; details: oral gavage; 1 mg and 0.1 mg (17α-ethynyl triol), 40 mg/kg (17β-amino compound)
NF-κB = assay: kinetic analysis of NF-kB inhibition in vivo after LPS; set-up: species or system mice
Protocol: Kinetic analysis of NF-kB inhibition in vivo. […] The drug was injected 24 hours before intraperitoneal injection of bacterial LPS (about an LD50/24). The study used two groups of 12 animals, vehicle control or drug administered 24 hours before LPS challenge. Spleens were harvested from 3 animals from both groups just before LPS challenge and at 1.5, 2.0 and 2.5 hours after administration of LPS.
Maximum NF-κB activation after LPS administration occurred at 1.5 hours in the vehicle controls, which was 4-fold increased over the pre-LPS level of activated NF-κB. The values for the vehicle control and drug treated animals are relative optical density units from ELISA measurement of NF-κB in nuclei from spleen cells.

C#C[C@]1(O)CC[C@H]2[C@@H]3[C@@H](O)C=C4C[C@@H](O)CC[C@]4(C)[C@H]3CC[C@@]21C [17α-ethynylandrost-5-ene-3β,7β,17β-triol]
Foxp3^+ CD4^+ cells by cell sorter analysis ([1]; 40 mg/kg/day oral gavage): 1.4%
maximum mean clinical score ([1]; day 34 after immunization): about 5
mean clinical score ([1]; day 49 after immunization): about 3
decrease of MCP-1 levels [2]: about 50%
osteoblast and osteocyte apoptosis [3]: reduce apoptosis
anti-inflammation activity compared to vehicle controls [4]: statistically significant anti-inflammation activity
activated NF-κB in spleen cell nuclei (ELISA) (NF-κB; 0 hours (before LPS), about 40 mg/kg i.p. 24 h before LPS): 22 relative optical density units
activated NF-κB in spleen cell nuclei (ELISA) (NF-κB; 1.5 hours after LPS): 2 relative optical density units
activated NF-κB in spleen cell nuclei (ELISA) (NF-κB; 2.0 hours after LPS): 7 relative optical density units
activated NF-κB in spleen cell nuclei (ELISA) (NF-κB; 2.5 hours after LPS): 9 relative optical density units
